Experimental data from patent US20250120975A1, “INTEGRIN INHIBITORS FOR TREATMENT OF PRIMARY SCLEROSING CHOLANGITIS” (Pliant Therapeutics, Inc., priority 2023, published 2025).

Columns and labels:
pSMAD3 = assay: pSMAD3/SMAD3 MSD assay in mouse liver tissue; type: in vivo; conditions: all doses (100, 300, 1000 mg/kg), 6 weeks
From the text: (§1) The tissue source is BALBc.Mdr2-/−male mice that were 6 weeks old. The Mdr2(abcb4)−/− mouse model of sclerosing cholangitis has been previously described and is a model of spontaneously progressive hepatic fibrosis in mice with deletion of the biliary phospholipid flippase on fibrosis-susceptible background (Mdr2(abcb4)^−/−. BALB/c mouse). See N. Ikenaga, et al. (2015) Am J Pathol. 185 (2): 325-334, the entire contents of which are hereby incorporated by reference in their entirety.
(§2) (S)-4-((2-methoxyethyl)(4-(5,6,7,8-tetrahydro-1,8-naphthyridin-2-yl)butyl)amino)-2-(quinazolin-4-ylamino)butanoic acid (or PBS) was dosed once daily orally at 100 mg/kg, 300 mg/kg or 1000 mg/kg (see Table B-2) starting at 6 weeks after birth of the subject and continuing for 6 weeks. All animals were euthanized and necropsied at the end of week 12.
Mouse liver tissues were lysed with RIPA buffer with protease inhibitor cocktail. Total protein concentration was determined by Micro BCA kit. MSD GOLD™ 96 Sm Spot SA Plate was washed three times with 150 μL of PBST and 1 μg/mL of biotinylated anti-SMAD2/3 was added to the plate, 25 μL per well (60 Min incubation under agitation). The plate was washed as before and 12.5 μL of unknown samples plus 12.5 μL of PBST were added in duplicates. […] After wash, 150 μL of 1× read buffer was added and the plate was read using an MSD Sector Imager instrument.

[1] = test system: BALB/c.Mdr2−/− mouse model of biliary fibrosis; assay: Liver and kidney biochemistries in serum (ALT, ALP, total bilirubin); type: in vivo; conditions: 6 weeks
From the text: as §1, §2
Determination of ALT, ALP, and total bilirubin was performed as conventional liver and kidney function tests at the clinical biochemistry core (BIDMC).

[2] = test system: subjects with PSC and suspected liver fibrosis; assay: Phase 2a INTEGRIS-PSC: transient elastography (FibroScan) liver stiffness; type: in vivo, human; conditions: 320 mg, Week 24, compared to an increase on placebo, Example B-5
From the text: Transient elastography (TE) utilizes an ultrasound shear wave to assess the elasticity of the liver, that is, how “stiff” the liver tissue is. Fibrosis causes stiffening or hardening of tissue, and TE can be used to diagnose fibrosis and determine the degree of fibrosis. The FibroScan® device (FibroScan® is a registered trademark of ECHOSENS, Paris, France, for medical equipment and software) can be used for TE. (Kemp W, Roberts S., Aust Fam Physician. 2013 July; 42(7):468-71; and Ozturk A. et al., Abdom Radiol (NY), 2022 September; 47 (9): 3037-3050; each of which are hereby incorporated by reference in their entireties).
Each subject underwent an ultrasound-based transient elastography (FibroScan®) assessment at the screening and Week 12 study visits (Parts 1 and 2) and will undergo an ultrasound-based transient elastography (FibroScan®) assessment at the screening, at Week 12 study visits, and at Week 24 (Part 3 only). FibroScan® is a noninvasive technique that uses ultrasound-based transient elastography (TE) to assess liver stiffness measurement (LSM) and determine likelihood of clinically meaningful liver fibrosis.
The LSM, as assessed by TE, is expressed in kilopascals (kPa). Larger values (normal range approximately between 2 and 7 kPa) indicate a greater likelihood of clinically meaningful liver fibrosis. See H. Ehlken, et al. (2016) PloS ONE 11 (10): e0164224 and C. […]

αVβ6 integrin = αVβ6 integrin (Homo sapiens, UniProt P06756+P18564); assay: Inhibition of αVβ6 integrin (IC50); type: binding; conditions: read-out: 50% inhibitory concentration [IC50] αVβ6
Sequence of αVβ6 integrin (P06756 31-1048): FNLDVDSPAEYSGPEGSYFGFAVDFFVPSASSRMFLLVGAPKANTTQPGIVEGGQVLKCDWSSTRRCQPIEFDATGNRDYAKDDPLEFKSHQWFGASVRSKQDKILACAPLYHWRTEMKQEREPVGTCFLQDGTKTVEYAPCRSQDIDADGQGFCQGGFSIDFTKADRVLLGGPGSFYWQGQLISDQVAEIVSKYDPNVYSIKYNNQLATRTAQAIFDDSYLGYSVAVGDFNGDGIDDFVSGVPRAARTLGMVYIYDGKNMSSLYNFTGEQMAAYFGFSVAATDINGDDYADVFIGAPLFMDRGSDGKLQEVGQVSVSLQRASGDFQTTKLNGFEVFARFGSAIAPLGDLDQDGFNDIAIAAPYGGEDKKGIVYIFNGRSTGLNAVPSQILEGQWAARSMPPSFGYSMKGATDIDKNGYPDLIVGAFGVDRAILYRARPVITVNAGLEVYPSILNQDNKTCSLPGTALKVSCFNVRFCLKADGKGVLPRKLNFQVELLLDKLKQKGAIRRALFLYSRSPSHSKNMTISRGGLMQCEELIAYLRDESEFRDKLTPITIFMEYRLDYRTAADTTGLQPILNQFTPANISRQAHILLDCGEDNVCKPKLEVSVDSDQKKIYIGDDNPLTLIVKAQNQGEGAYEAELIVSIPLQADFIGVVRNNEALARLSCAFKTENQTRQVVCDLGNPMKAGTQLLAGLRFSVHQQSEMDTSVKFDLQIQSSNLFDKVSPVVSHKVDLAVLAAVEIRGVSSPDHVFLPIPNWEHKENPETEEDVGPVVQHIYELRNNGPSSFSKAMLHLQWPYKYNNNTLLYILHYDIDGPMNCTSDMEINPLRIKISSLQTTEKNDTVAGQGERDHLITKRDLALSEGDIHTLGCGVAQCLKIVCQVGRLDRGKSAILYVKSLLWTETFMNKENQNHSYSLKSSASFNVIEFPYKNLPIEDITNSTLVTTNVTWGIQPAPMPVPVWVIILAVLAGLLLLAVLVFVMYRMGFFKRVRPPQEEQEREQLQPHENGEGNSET
Sequence of αVβ6 integrin (P18564 22-788): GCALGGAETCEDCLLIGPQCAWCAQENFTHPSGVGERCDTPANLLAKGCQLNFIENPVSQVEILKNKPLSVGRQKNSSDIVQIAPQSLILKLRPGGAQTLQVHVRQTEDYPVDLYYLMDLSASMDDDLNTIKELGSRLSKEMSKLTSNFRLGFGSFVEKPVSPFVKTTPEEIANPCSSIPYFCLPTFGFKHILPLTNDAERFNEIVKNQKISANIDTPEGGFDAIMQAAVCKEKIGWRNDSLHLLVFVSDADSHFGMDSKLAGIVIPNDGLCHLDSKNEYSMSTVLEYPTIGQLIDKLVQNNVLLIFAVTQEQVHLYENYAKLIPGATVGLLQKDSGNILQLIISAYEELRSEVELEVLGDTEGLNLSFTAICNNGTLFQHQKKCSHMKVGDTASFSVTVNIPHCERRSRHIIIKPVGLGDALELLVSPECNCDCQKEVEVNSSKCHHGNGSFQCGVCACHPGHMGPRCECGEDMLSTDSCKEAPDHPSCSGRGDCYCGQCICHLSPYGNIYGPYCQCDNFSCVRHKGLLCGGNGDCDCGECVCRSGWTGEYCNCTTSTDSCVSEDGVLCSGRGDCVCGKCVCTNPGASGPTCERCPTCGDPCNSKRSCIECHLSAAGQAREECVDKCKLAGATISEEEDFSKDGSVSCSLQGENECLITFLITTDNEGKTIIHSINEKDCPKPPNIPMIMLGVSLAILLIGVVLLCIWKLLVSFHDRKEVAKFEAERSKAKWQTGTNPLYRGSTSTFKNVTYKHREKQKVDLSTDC

[3] = Phase 2a INTEGRIS-PSC: plasma concentrations (total and unbound); type: in vivo, human; conditions: 40, 80, 160 mg once daily, 12 weeks
From the text: The pharmacokinetic, pharmacodynamic, and pharmacogenomic assessments included the following: • a) PK: plasma samples for PK analysis (total and unbound(S)-4-((2-methoxyethyl)(4-(5,6,7,8-tetrahydro-1,8-naphthyridin-2-yl)butyl)amino)-2-(quinazolin-4-ylamino)butanoic acid concentrations) were obtained. • b) Biomarkers: plasma, serum (Parts 1, 2, and 3), and urine (Parts 1 and 2) samples were obtained. • c) Pharmacogenomics: a whole blood sample for deoxyribonucleic acid (DNA) isolation was collected before dosing on Day 1 from each subject in the study.
Blood samples for determination of plasma concentrations of (S)-4-((2-methoxyethyl)(4-(5,6,7,8-tetrahydro-1,8-naphthyridin-2-yl)butyl)amino)-2-(quinazolin-4-ylamino)butanoic acid are obtained before and at least 2 hours after administration of (S)-4-((2-methoxyethyl)(4-(5,6,7,8-tetrahydro-1,8-naphthyridin-2-yl)butyl)amino)-2-(quinazolin-4-ylamino)butanoic acid on Day 1, at Weeks 4 and 12(Parts 1, 2, and 3), Week 24 (Part 3 only), and at early termination (if possible, for any subject who prematurely discontinues from the study). The actual time dosing and the actual time of blood collection is recorded. […]

Q: Which “pSMAD3 levels in liver” value (pSMAD3) does the source give for `COCCN(CCCCc1ccc2c(n1)NCCC2)CC[C@H](Nc1ncnc2ccccc12)C(=O)O` [Bexotegrast, (S)-4-((2-methoxyethyl)(4-(5,6,7,8-tetrahydro-1,8-naphthyridin-2-yl)butyl)amino)-2-(quinazolin-4-ylamino)butanoic acid] here?
A: decreased

Q: And the “serum alkaline phosphatase levels” value ([1]; 1000 mg/kg, vs vehicle)?
A: significantly decreased

Q: And the “serum ALT levels” value ([1]; 100, 300, 1000 mg/kg)?
A: did not change

Q: And the “serum total bilirubin levels” value ([1]; 100, 300, 1000 mg/kg)?
A: dose dependent trend down

Q: And the “median liver stiffness by transient elastography (TE)” value [2]?
A: numerical reduction

Q: And the “median liver stiffness by transient elastography (TE)” value ([2]; listed as bexotegrast)?
A: decrease

Q: What about the IC50 (αVβ6 integrin) of the same molecule?
A: 5.7 nM

Q: And the “total and unbound plasma concentrations vs dose” value [3]?
A: increased with dose
